Test results: ChEMBL document CHEMBL1156251, “Structure--activity relationships of polymyxin antibiotics” (J Med Chem, 2010)
Values after ≈ are worked out from the molar mass of the structure shown. *1 amine or outer side, *2 acyl side, *3 side chain or, on linkers, in order; H or OH if unused. Where a SMILES comes first, the peptide text is derived from it. Bridges are numbered along the chain shown (N, C = ends). [ ]: non-standard residue; d: D form. The star is where a group is joined. X1 = NC(=O)[C@@H](CS[*:2])C(=O)[*:1]; Octanoyl = CCCCCCCC(=O)*; Dab = NCC[C@H](N)C(=O)O

What was measured:
Salmonella enterica = test: Antimicrobial activity against Salmonella enterica; type: functional
Lipopolysaccharide (LPS) = test: Displacement of dansyl-PMB from LPS by isothermal titration calorimetry; conditions: for IC50: read-out: IC50
Escherichia coli = test: Antimicrobial activity against Escherichia coli; type: functional
Pseudomonas aeruginosa = test: Antimicrobial activity against Pseudomonas aeruginosa; type: functional, organism-based

Row | Structure (SMILES) | MIC (Salmonella enterica) | Ka (Lipopolysaccharide (LPS)) | MIC (Escherichia coli) [µM] | MIC (Pseudomonas aeruginosa) | IC50 (Lipopolysaccharide (LPS)) [µM]
1 | CC(C)C[C@@H]1NC(=O)[C@H](Cc2ccccc2)NC(=O)[C@H](CCCCN)NC(=O)[C@@H](C(N)=O)CSSC[C@@H](C(N)=O)NC(=O)[C@H](CCCCN)NC(=O)[C@H](CCCCN)NC1=O (KFLKKC-NH2; linker N-6 via X1) | > 1000 mg/L | 1.15 10^5/M |  |  | 
2 | CCCC1CCC(C(=O)N[C@@H](CCN)C(=O)N[C@H](C(=O)N[C@@H](CCN)C(=O)N[C@H]2CCNC(=O)[C@H]([C@@H](C)O)NC(=O)[C@H](CCN)NC(=O)[C@H](CCN)NC(=O)[C@H](CC(C)C)NC(=O)[C@@H](Cc3ccccc3)NC(=O)[C@H](CCN)NC2=O)[C@@H](C)O)CC1 (stereo partly specified) | 4 µM |  | 4 (≈ 4.86 µg/mL) | 2 µM | 
3 | CC(C)C[C@@H]1NC(=O)[C@@H](CC(C)C)NC(=O)[C@H](CCN)NC(=O)[C@@H](NC(=O)[C@H](CCN)NC(=O)[C@@H](NC(=O)[C@H](CCN)NC(=O)CCCC2CCCCC2)[C@@H](C)O)CCNC(=O)[C@H]([C@@H](C)O)NC(=O)[C@H](CCN)NC(=O)[C@H](CCN)NC1=O | 1 µM |  | 2 (≈ 2.36 µg/mL) | 1 µM | 
4 | CC(C)C[C@@H]1NC(=O)[C@@H](Cc2ccccc2)NC(=O)[C@H](CCN)NC(=O)[C@@H](NC(=O)[C@H](CCN)NC(=O)[C@@H](NC(=O)[C@H](CCN)NC(=O)C(c2ccccc2)C2CCCC2)[C@@H](C)O)CCNC(=O)[C@H]([C@@H](C)O)NC(=O)[C@H](CCN)NC(=O)[C@H](CCN)NC1=O (stereo partly specified) [CYCLOPENTYLPHENYL ACETIC ACID POLYMIXIN B] | 8 µM |  | 8 (≈ 10 µg/mL) | 2 µM | 
5 | CC(C)C[C@@H]1NC(=O)[C@@H](CC(C)C)NC(=O)[C@H](CCN)NC(=O)[C@@H](NC(=O)[C@H](CCN)NC(=O)[C@@H](NC(=O)[C@H](CCN)NC(=O)C(c2ccccc2)C2CCCC2)[C@@H](C)O)CCNC(=O)[C@H]([C@@H](C)O)NC(=O)[C@H](CCN)NC(=O)[C@H](CCN)NC1=O (stereo partly specified) [CYCLOPENTYLPHENYL ACETIC ACID COLISTIN] | 16 µM |  | 16 (≈ 19.4 µg/mL) | 2 µM | 
6 | CCCCCCCC(=O)N[C@@H](C)C(=O)N[C@H](C(=O)N[C@@H](CCN)C(=O)N[C@H]1CCNC(=O)[C@H]([C@@H](C)O)NC(=O)[C@H](CCN)NC(=O)[C@H](CCN)NC(=O)[C@H](CC(C)C)NC(=O)[C@@H](Cc2ccccc2)NC(=O)[C@H](CCN)NC1=O)[C@@H](C)O (Octanoyl-AT[Dab][Dab][Dab][dF]L[Dab][Dab]T; lactam 4-C) | 2 µM |  | 2 (≈ 2.32 µg/mL) | 2 µM | 
7 | CC(C)C[C@@H]1NC(=O)[C@@H](Cc2ccccc2)NC(=O)[C@H](CCN)NC(=O)[C@@H](NC(=O)[C@H](CCN)NC(=O)[C@@H](NC(=O)[C@H](CCN)NC(=O)CCCc2cc3ccc4cccc5ccc(c2)c3c45)[C@@H](C)O)CCNC(=O)[C@H]([C@@H](C)O)NC(=O)[C@H](CCN)NC(=O)[C@H](CCN)NC1=O | 2 µM |  | 2 (≈ 2.67 µg/mL) | 2 µM | 
8 | C[C@@H]1NC(=O)[C@@H](Cc2ccccc2)NC(=O)[C@H](CCN)NC(=O)[C@@H](NC(=O)[C@H](CCN)NC(=O)[C@@H](N)[C@@H](C)O)CCNC(=O)[C@H]([C@@H](C)O)NC(=O)[C@H](CCN)NC(=O)[C@H](CCN)NC1=O |  |  |  | ≥ 250 mg/L | 12
9 | C[C@@H](O)[C@H](N)C(=O)N[C@@H](CCN)C(=O)N[C@H]1CCNC(=O)[C@H]([C@@H](C)O)NC(=O)[C@H](CCN)NC(=O)[C@H](CCN)NC(=O)[C@H](Cc2ccccc2)NC(=O)[C@@H](Cc2ccccc2)NC(=O)[C@H](CCN)NC1=O |  |  |  | ≥ 250 mg/L | 5
10 | CC(=O)N[C@H](C(=O)N[C@@H](CCN)C(=O)N[C@H]1CCNC(=O)[C@H]([C@@H](C)O)NC(=O)[C@H](CCN)NC(=O)[C@H](CCN)NC(=O)[C@H](CC(C)C)NC(=O)[C@@H](CC(C)C)NC(=O)[C@H](CCN)NC1=O)[C@@H](C)O | > 512 µM |  | 128 (≈ 124 µg/mL) | 2 µM | 
11 | CC(=O)N[C@H](C(=O)N[C@@H](CCN)C(=O)N[C@H]1CCNC(=O)[C@H]([C@@H](C)O)NC(=O)[C@H](CCN)NC(=O)[C@H](CCN)NC(=O)[C@H](CC(C)C)NC(=O)[C@@H](Cc2ccccc2)NC(=O)[C@H](CCN)NC1=O)[C@@H](C)O | 128 µM |  | 32 (≈ 32.2 µg/mL) | 2 µM | 
12 | CC(C)C[C@@H]1NC(=O)[C@@H](Cc2ccccc2)NC(=O)[C@H](CCN)NC(=O)[C@@H](NC(=O)[C@H](CCN)NC(=O)[C@@H](NC(=O)[C@H](CCN)NC(=O)C2CCCCCCCCCCC2)[C@@H](C)O)CCNC(=O)[C@H]([C@@H](C)O)NC(=O)[C@H](CCN)NC(=O)[C@H](CCN)NC1=O [CYCLODEDECANE CARBOXYLIC ACID POLYMIXIN B] | 2 µM |  | 2 (≈ 2.52 µg/mL) | 2 µM | 
13 | CCCCCCCC(=O)N[C@@H](CCN)C(=O)N[C@@H](C)C(=O)N[C@@H](CCN)C(=O)N[C@H]1CCNC(=O)[C@H]([C@@H](C)O)NC(=O)[C@H](CCN)NC(=O)[C@H](CCN)NC(=O)[C@H](CC(C)C)NC(=O)[C@@H](Cc2ccccc2)NC(=O)[C@H](CCN)NC1=O (Octanoyl-[Dab]A[Dab][Dab][Dab][dF]L[Dab][Dab]T; lactam 4-C) | 4 µM |  | 8 (≈ 9.28 µg/mL) | 2 µM | 
14 | CCCCCCCC(=O)N[C@H](C(=O)N[C@@H](CCN)C(=O)N[C@H]1CCNC(=O)[C@H]([C@@H](C)O)NC(=O)[C@H](CCN)NC(=O)[C@H](CCN)NC(=O)[C@H](CC(C)C)NC(=O)[C@@H](CC(C)C)NC(=O)[C@H](CCN)NC1=O)[C@@H](C)O [Octanoyl colistin nonapeptide] | 4 µM |  | 1 (≈ 1.06 µg/mL) | 2 µM | 
15 | CC[C@H](C)[C@H](N)C(=O)N[C@@H](CCCCN)C(=O)N[C@H](C(=O)N[C@@H](CCCCN)C(=O)N[C@@H](CCCCN)C(=O)N[C@@H](Cc1ccccc1)C(=O)N[C@@H](CC(C)C)C(=O)N[C@@H](CCCCN)C(=O)N[C@@H](CCCCN)C(=O)N[C@H](C(=O)O)[C@@H](C)O)[C@@H](C)O (H-IKTKKFLKKT-OH) |  | 0.2 10^5/M |  |  | 
16 | CC(C)C[C@@H]1NC(=O)[C@@H](Cc2ccccc2)NC(=O)[C@H](CCN)NC(=O)[C@@H](NC(=O)[C@H](CCN)NC(=O)[C@@H](NC(=O)[C@H](CCN)NC(=O)CCCC2CCCCC2)[C@@H](C)O)CCNC(=O)[C@H]([C@@H](C)O)NC(=O)[C@H](CCN)NC(=O)[C@H](CCN)NC1=O | 0.5 µM |  | 0.5 (≈ 0.608 µg/mL) | 1 µM | 
17 | CC(C)C[C@@H]1NC(=O)[C@@H](Cc2ccccc2)NC(=O)[C@H](CCN)NC(=O)[C@@H](NC(=O)[C@H](CCN)NC(=O)[C@@H](NC(=O)[C@H](CCN)NC(=O)c2ccc3ccccc3c2)[C@@H](C)O)CCNC(=O)[C@H]([C@@H](C)O)NC(=O)[C@H](CCN)NC(=O)[C@H](CCN)NC1=O [2-ANTHRACENE CARBOXYLIC ACID POLYMIXIN B] | 2 µM |  | 4 (≈ 4.87 µg/mL) | 2 µM | 
18 | CC(C)C[C@@H]1NC(=O)[C@@H](Cc2ccccc2)NC(=O)[C@H](CCN)NC(=O)[C@@H](NC(=O)[C@H](CCN)NC(=O)[C@@H](NC(=O)[C@H](CCN)NC(=O)Cc2ccc(-c3ccccc3)cc2)[C@@H](C)O)CCNC(=O)[C@H]([C@@H](C)O)NC(=O)[C@H](CCN)NC(=O)[C@H](CCN)NC1=O [4-BIPHENYL ACETIC ACID POLYMIXIN B] | 1 µM |  | 0.5 (≈ 0.629 µg/mL) | 1 µM | 
19 | CC(C)C[C@@H]1NC(=O)[C@@H](CC(C)C)NC(=O)[C@H](CCN)NC(=O)[C@@H](NC(=O)[C@H](CCN)NC(=O)[C@@H](NC(=O)[C@H](CCN)NC(=O)C2CCCCCCCCCCC2)[C@@H](C)O)CCNC(=O)[C@H]([C@@H](C)O)NC(=O)[C@H](CCN)NC(=O)[C@H](CCN)NC1=O [CYCLODODECANE CARBOXYLIC ACID COLISTIN] | 2 µM |  | 4 (≈ 4.89 µg/mL) | 2 µM | 
20 | CC(C)C[C@@H]1NC(=O)[C@@H](CC(C)C)NC(=O)[C@H](CCN)NC(=O)[C@@H](NC(=O)[C@H](CCN)NC(=O)[C@@H](NC(=O)[C@H](CCN)NC(=O)CC23CC4CC(CC(C4)C2)C3)[C@@H](C)O)CCNC(=O)[C@H]([C@@H](C)O)NC(=O)[C@H](CCN)NC(=O)[C@H](CCN)NC1=O | 1 µM |  | 2 (≈ 2.41 µg/mL) | 1 µM | 
21 | CC(C)C[C@@H]1NC(=O)[C@@H](Cc2ccccc2)NC(=O)[C@H](CCN)NC(=O)[C@@H](NC(=O)[C@H](CCN)NC(=O)[C@@H](NC(=O)[C@H](CCN)NC(=O)CC23CC4CC(CC(C4)C2)C3)[C@@H](C)O)CCNC(=O)[C@H]([C@@H](C)O)NC(=O)[C@H](CCN)NC(=O)[C@H](CCN)NC1=O [1-ADAMANTANEACETIC ACID POLYMIXIN B] | 0.5 µM |  | 1 (≈ 1.24 µg/mL) | 1 µM | 
22 | CC(C)C[C@@H]1NC(=O)[C@@H](Cc2ccc(O)cc2)NC(=O)[C@H](CCN)NC(=O)[C@@H](NC(=O)[C@H](CCN)NC(=O)[C@@H](N)[C@@H](C)O)CCNC(=O)[C@H]([C@@H](C)O)NC(=O)[C@H](CCN)NC(=O)[C@H](CCN)NC1=O |  |  |  | ≥ 500 mg/L | 25
23 | CCCC1CCC(C(=O)N[C@@H](CCN)C(=O)N[C@H](C(=O)N[C@@H](CCN)C(=O)N[C@H]2CCNC(=O)[C@H]([C@@H](C)O)NC(=O)[C@H](CCN)NC(=O)[C@H](CCN)NC(=O)[C@H](CC(C)C)NC(=O)[C@@H](CC(C)C)NC(=O)[C@H](CCN)NC2=O)[C@@H](C)O)CC1 (stereo partly specified) | 8 µM |  | 8 (≈ 9.45 µg/mL) | 2 µM | 
24 | CCCCCCCCCCCCCC(=O)N[C@H](C(=O)N[C@@H](CCN)C(=O)N[C@H]1CCNC(=O)[C@H]([C@@H](C)O)NC(=O)[C@H](CCN)NC(=O)[C@H](CCN)NC(=O)[C@H](CC(C)C)NC(=O)[C@@H](Cc2ccccc2)NC(=O)[C@H](CCN)NC1=O)[C@@H](C)O | 4 µM |  | 4 (≈ 4.69 µg/mL) | 4 µM | 
25 | CCCCCCCC(=O)N[C@@H](CCNS(=O)(=O)c1cccc2c(N(C)C)cccc12)C(=O)N[C@H](C(=O)N[C@@H](CCN)C(=O)N[C@H]1CCNC(=O)[C@H]([C@@H](C)O)NC(=O)[C@H](CCN)NC(=O)[C@H](CCN)NC(=O)[C@H](CC(C)C)NC(=O)[C@@H](Cc2ccccc2)NC(=O)[C@H](CCN)NC1=O)[C@@H](C)O | 1 µM |  | 1 (≈ 1.42 µg/mL) | 1 µM | 
26 | CC(C)C[C@@H]1NC(=O)[C@@H](Cc2c[nH]c3ccccc23)NC(=O)[C@H](CCN)NC(=O)[C@@H](NC(=O)[C@H](CCN)NC(=O)[C@@H](N)[C@@H](C)O)CCNC(=O)[C@H]([C@@H](C)O)NC(=O)[C@H](CCN)NC(=O)[C@H](CCN)NC1=O |  |  |  | ≥ 500 mg/L | 4
